{"source": "patent US8772029B2", "about": "“Modulation of oocyte meiotic progression and oocyte activation” (Northwestern University, priority 2011, dated 2014)", "key": {"[1]": {"system": "zinc-insufficient oocytes", "test": "Spindle phenotype scoring after IVM in TPEN with proteasome inhibitor MG132 added after 10 h", "format": "cell-based, mouse", "conditions": "TPEN 16 h without MG132; n=13", "procedure": "For IVM studies, immature female CD1 mice (17 to 21 day old) were injected with 5IU equine chorionic gonadotropin (eCG) (Calbiochem, La Jolla, CA) in 100 μL sterile phosphate-buffered saline (PBS), intraperitoneally. After 44 to 48 hours, mice were anesthetized using isoflurane and euthanized by cervical dislocation. Dissected ovaries were placed in Leibovitz L-15 medium containing 1% FBS (L-15/FBS) and 0.2mM 3-isobutyl-1-methylxanthine (IBMX), and large antral follicles were punctured using 28 gauge needles to release cumulus oocyte complexes (COCs). COCs were washed through several drops of culture medium consisting of Minimum Essential Medium (MEM)-alpha with GLUTAMAX supplemented with 10% FBS, 1.5IU/mL human chorionic gonadotropin (hCG), and 5ng/mL epidermal growth factor and placed in culture medium with or without 10 μM N,N,N′,N′-tetrakis(2-pyridylmethyl) ethylenediamine (TPEN). In some experiments Z-Leu-Leu-Leu-al (MG132) was added to culture medium at 20 μM. COCs were cultured in drops of pre-equilibrated medium covered with embryo quality mineral oil at 37° C. in 5% CO2 with a humid environment. Ovulated MII eggs were collected from 4 to 6 week old mice primed with 5IU PMSG followed 48 h later by 5IU hCG. Oviducts were dissected into L-15/FBS, and eggs were removed and treated with 0.03% (w/v) hyaluronidase to remove cumulus cells. Eggs were washed and cultured in potassium simplex optimized medium (KSOM) (Millipore, Billerica, MA) covered with embryo quality mineral oil at 37° C. in 5% CO2.\nOocytes were denuded of cumulus cells and fixed in a microtubule stabilizing buffer (Ibanez et al., 2005) containing 2% formaldehyde and 1% Triton X-100 for 30 min at 37° C. Oocytes were washed and blocked in PBS containing 0.1M glycine, 3mg/mL BSA, 0.01% Tween 20, and 0.01% sodium azide for at least 1 h and were stored in blocking solution at 4° C. for up to 2 weeks. Oocytes were incubated with anti-tubulin antibody (1:100) for 1 h at 37C. followed by three washes in blocking solution. They were then incubated for 1 h in AlexaFluor-488 conjugated anti-mouse secondary antibody (5μg/mL) and rhodamine-phalloidin (2U/mL), washed three additional times, and mounted in VECTASHIELD with DAPI. Microscopy was performed using a Leica SP5 inverted laser-scanning confocal microscope with a 63x oil immersion objective (Leica Microsystems, Heidelberg, Germany). Images were processed using LAS AF software (Leica Microsystems).\nIt has been previously shown that zinc-insufficient oocytes fail to increase MPF activity following the first meiotic division and have low CCNB1 protein levels (Bernhardt et al., 2010). In order to determine whether this decrease in CCNB1 is the major cause of the observed meiotic arrest phenotype, it was tested whether increasing CCNB1 would be sufficient to rescue MII entry in zinc-insufficient oocytes by inhibiting the proteasome at the end of the MI-MII transition, thereby halting CCNB1 degradation. Experimental oocytes were cultured for 10 hours in TPEN-containing medium and were then transferred into medium containing TPEN as well as the proteasome inhibitor Z-Leu-Leu-Leu-al (MG132) at 20 μM concentration. MG132 was added after first polar body extrusion, because earlier addition would result in MI arrest due to failure to degrade APC/C targets that prevent cell division. Oocytes were cultured for an additional 6 h in the presence of MG132 to allow time for CCNB1 reaccumulation, for a total 16 h IVM culture period. Proteasome inhibition led to a partial rescue of the zinc insufficiency phenotype. 69% of treated oocytes formed spindle-like structures, and none were in telophase I arrest, despite being cultured in the presence of TPEN for the entire culture period (FIG. 2, A; Table 2).\nA majority of zinc-insufficient oocytes treated with MG132 following the first meiotic division transition progress beyond telophase-I arrest and form MII spindle-like structures. […]"}, "[2]": {"system": "MII eggs", "conditions": "literature (Kim et al 2011, Suzuki et al 2010); cited from earlier work"}, "[3]": {"system": "CCNB1", "test": "Western blot for CCNB1 in oocytes", "format": "cell-based, mouse", "conditions": "oocytes cultured with 10 μM TPEN during the MI-MII transition", "procedure": "Western blotting was performed essentially as previously described (Bernhardt et al., 2010). Briefly, 15 to 50 cumulus-denuded oocytes were transferred in a minimal amount of medium to microcentrifuge tubes and immediately lysed in 8 μL of 1x SDSPAGE Sample Buffer (Laemmli, 1970). SDS-PAGE gels were run using the Invitrogen NuPAGE system and transferred to Immobilon-P PVDF membranes (Millipore, Billerica, MA). Blocking and antibody incubations were in 2% w/v ECL Advanced Blocking Reagent (Amersham) in TBS-T (20mM Tris, pH7.4, 137mM NaC1, 0.1% Tween20 v/v). Anti-CCNB1antibody was diluted 1:500, anti-FBXO43 was used at 1:1000 dilution, and anti-tubulin antibody was used at 1:10,000. HRP-conjugated secondary antibodies were diluted 1:10,000. Detection was performed using Amersham ECL Advanced detection reagent. BIOMAX MR films (Kodak, Rochester, NY) were exposed and developed, or an Alpha-Innotech (San Learndo, CA) MultiImage II system was used."}}, "note": "Entries after “also recorded” stand apart in the source; their conditions may differ."}
{"compound": "c1ccc(CN(CCN(Cc2ccccn2)Cc2ccccn2)Cc2ccccn2)nc1", "note": "[TPEN, N,N,N′,N′-tetrakis(2-pyridylmethyl)ethylenediamine]", "values": [{"measurement": "MII (aligned metaphase plate)", "setting": "[1]", "value": 0, "unit": "%"}, {"measurement": "other spindle phenotype", "setting": "[1]", "value": 23, "unit": "%"}, {"measurement": "persisting midbody or chromatin mass", "setting": "[1]", "value": 0, "unit": "%"}, {"measurement": "spindle with chr. scattered along length", "setting": "[1]", "value": 0, "unit": "%"}, {"measurement": "spindle with ≦3 chr. out of place", "setting": "[1]", "value": 0, "unit": "%"}, {"measurement": "activation of MII-arrested eggs by zinc sequestration with TPEN", "setting": "[2]", "value": "causes egg activation and resumption of cell cycle; also recorded: induce egg activation and embryo development"}, {"measurement": "CCNB1 protein levels", "setting": "[3]", "value": "low"}]}
